Source: patent US20140378541A1, “Synthetic Epigallocatechin Gallate (EGCG) Analogs” (WAYNE STATE UNIVERSITY, priority 2011, published 2014)

Assays:
AMPK signaling = experiment: AMPK activation, Western blot, MDA-MB-231 cells; type: cell-based, human; details: 3 h; for AMPK activation (p-AMPK): 20 μM, metformin 10 mM as comparison; for AMPK activation (phosphor-AMPKα, phosphor-Raptor), dose dependence: indicated concentrations
Protocol: (§1) In FIG. 9A, human breast cancer MDA-MB-231 cells were treated with 20 μM of EGCG, Pro-EGCG and EGCG analogs (compounds 5, 7, 23, 30 and 31), or 10 mM of metformin for 3 hrs. Cell lysates were analyzed by Western blot using antibodies of anti-AMPK, p-AMPK, PARP, p-EGFR, EGFR or β-actin. In FIG. 9B, human breast cancer MDA-MB-231 cells were treated with 20 μM of EGCG analogs 23 and 30, 10 nM of docetaxel alone, or combined treatment with compounds 23 and 30 plus docetaxel for 24 hrs. Cell lysates were analyzed by Western blot using antibodies of anti-AMPK, p-AMPK, PARP, p-EGFR, EGFR or β-actin. In FIG. 9C, cells were incubated in medium (0.1% BSA without FBS) containing 20 μM of 23, 30, 2.5 μM of Erlotinib (Eb) alone or the combinations as indicated for 24 hrs. Cell lyses were analyzed by Western blot using antibodies of anti-AMPK, p-AMPK, PARP, p-EGFR, EGFR or β-actin.
(§2) (A) EGCG analogs 23 and 30 inhibited breast cancer cell proliferation. MDA-MB-231 cells were treated with indicated concentrations of 23, 30 or metformin for 24 h, followed by a MTT assay. *, P<0.1; **, P<0.01. Columns, mean of three experiments; bars, SD. (B) EGCG analogs 23 and 30 activated AMPK at a dose-dependent manner, measured by elevated level of phosphor-AMPKα and its downstream proteins of phosphor-Raptor. […] MDA-MB-231 cells were treated with indicated concentrations of 23 or 30 for 3 h, followed by Western blot analysis with the indicated antibodies. The numbers underneath the Western results of p-AMPKα indicated normalized phosphor-AMPKα/β-actin ratios. […]
A whole cell extract was prepared from the treated cells as described by Landis-Piwowar et al. Cancer Res. (2007) 67, 4303, Chen et al. Cancer Res. (2007) 67, 1636, and Chen et al. Biochem. Pharm. (2005) 69, 1421. Cell extracts (30 μg) were separated by an SDS-PAGE gel and transferred to nitrocellulose membranes. The membrances were blotted by specific antibodies including anti-AMPK, p-AMPK, EGFR, p-EGFR (Cell Signaling Tech., Danvers, Mass.), PARP (Enzo Life Sciences, Plymouth Meeting, Pa.), actin (Santa Cruz Biotechnology, Santa Cruz, Calif.). The membranes were visualized by enhanced chemiluminescence, as described previously by Landis-Piwowar et al. Cancer Res. (2007) 67, 4303, Chen et al. Cancer Res. (2007) 67, 1636, and Chen et al. Biochem. Pharm. (2005) 69, 1421.
(§3) The Western blot analysis was performed as follows: A whole cell extract was prepared from the treated cells as described previously (Landis-Piwowar et al., Cancer research, 2007, 67: 4303-4310; Chen et al., Cancer research, 2007, 67: 1636-1644; Chen et al., Biochemical pharmacology, 2005, 69: 1421-1432). The cell extracts (30 μg) were then separated by an SDS-PAGE gel and transferred to nitrocellulose membranes. The membrances were blotted by specific antibodies including anti-AMPK, p-AMPK, EGFR, p-EGFR (Cell Signaling Tech. Danvers, Mass.), PARP (Enzo Life Sciences, Plymouth Meeting, Pa.), actin (Santa Cruz Biotechnology, Santa Cruz, Calif.). The membranes were visualized by enhanced chemiluminescence, as described previously (Landis-Piwowar et al., Cancer research, 2007, 67: 4303-4310; Chen et al., Cancer research, 2007, 67: 1636-1644; Chen et al., Biochemical pharmacology, 2005, 69: 1421-1432).
(§4) In FIG. 9A, human breast cancer MDA-MB-231 cells were treated with 20 μM of EGCG, Pro-EGCG and other EGCG analogs (compounds 5, 7, 23, 30 and 31), or 10 mM of metformin for 3 hrs. Cell lysates were analyzed by Western blot using antibodies of anti-AMPK, p-AMPK, PARP, p-EGFR, EGFR or β-actin. In FIG. 9B, human breast cancer MDA-MB-231 cells were treated with 20 μM of EGCG analogs 23 and 30, 10 nM of docetaxel alone, or combined treatment with compounds 23 and 30 plus docetaxel for 24 hrs.

MDA-MB-231 cells [1] = experiment: Mammosphere formation assay; type: cell-based; details: Homo sapiens, MDA-MB-231, 168 h, 7 days
Protocol: MDA-MB-231 cells were seeded in low attached 6-well plates (1000 cells/well) and treated with indicated concentrations of 23 and 30 for 7 days, followed by calculating numbers of mammosphere (A) and taking photos of mammosphere morphology (B). Metformin and EGCG were served as control. *, P<0.1; **, P<0.01. Columns, mean of three experiments; bars, SD.
Mammosphere formation assay was performed to assess the capacity of cancer stem cell self-renewal. Single cell suspensions of MDA-MB-231 cells were thoroughly suspended and plated on ultra low adherent wells of 6-well plates (Corning, Lowell, Mass.) at 1000 cells/well in 1.5 ml of sphere formation medium (1:1 DMEM/F12 medium supplemented with 50 units/ml penicillin, […] streptomycin, B-27 and N-2). One milliliter of sphere formation medium was added every 3-4 days. After 7 days of incubation with different concentrations of EGCG analogs 23, 30 or metformin, the formed spheres were collected by centrifugation at 300 g for 5 min and counted with an inverted phase-contrast Zeiss Axiovert 25 microscope.

MDA-MB-231 cells [2] = experiment: Combination with docetaxel or erlotinib, Western blot (PARP cleavage, p-EGFR), MDA-MB-231 cells; type: cell-based, human; details: 24 h; for sensitization to docetaxel (apoptotic cell death, PARP cleavage): 20 μM plus 10 nM docetaxel; for sensitization to erlotinib (p-EGFR reduction, PARP cleavage): 20 μM plus 2.5 μM erlotinib
Protocol: as §1, §3, §4

[3] = test system: mTOR pathway (phosphor-p70-S6K); experiment: mTOR pathway, phosphor-p70-S6K Western blot, MDA-MB-231 cells; type: cell-based, human; details: 3 h
Protocol: as §2
(§5) The Western blot analysis was performed as follows: A whole cell extract was prepared from the treated cells as described previously (Landis-Piwowar et al., Cancer research, 2007, 67: 4303-4310; Chen et al., Cancer research, 2007, 67: 1636-1644; Chen et al., Biochemical pharmacology, 2005, 69: 1421-1432). The cell extracts (30 μg) were then separated by an SDS-PAGE gel and transferred to nitrocellulose membranes. […]

p21 protein = p21 protein level, Western blot, MDA-MB-231 cells; type: cell-based, human; details: 3 h
Protocol: as §2, §5

Compound	AMPK activation (p-AMPK) (AMPK signaling)	inhibition at 10 µM (MDA-MB-231 cells [1]) [%]	inhibition at 20 µM (MDA-MB-231 cells [1]) [%]	AMPK activation (phosphor-AMPKα, phosphor-Raptor), dose dependence (AMPK signaling)	sensitization to docetaxel (apoptotic cell death, PARP cleavage) (MDA-MB-231 cells [2])	sensitization to erlotinib (p-EGFR reduction, PARP cleavage) (MDA-MB-231 cells [2])	phosphor-p70-S6K level [3]	p21 protein level (p21 protein)
O=C(O[C@@H]1Cc2c(O)cc(O)cc2O[C@@H]1c1cc(O)c(O)c(O)c1)c1cc(O)c(O)c(O)c1 [Compound 1, (−)-Epigallocatechin gallate, reference compound]	can activate AMPK signaling	20.1	51.3	–	–	–	–	–
O=C(O[C@H]1Cc2ccccc2C[C@H]1OC(=O)c1cc(O)c(Br)c(O)c1)c1cc(O)c(Br)c(O)c1 [Compound 23]	more potent AMPK activators even at lower concentration than metformin	45.1	66.7	activated AMPK in a dose-dependent manner	sensitize these TNBC cells to Docetaxel	sensitize these TNBC cells to the EGFR inhibitor Erlotinib	decreased phosphor-p70-S6K	increased levels of p21 protein
Nc1ccc(C(=O)O[C@H]2Cc3ccccc3C[C@H]2OC(=O)c2ccc(N)cc2)cc1 [Compound 30]	more potent AMPK activators even at lower concentration than metformin	52.2	73.3	activated AMPK in a dose-dependent manner	sensitize these TNBC cells to Docetaxel	sensitize these TNBC cells to the EGFR inhibitor Erlotinib	decreased phosphor-p70-S6K	increased levels of p21 protein
